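Compound exposure: 48 hours, 5 concentrations, 96-well plates. The concentration for 50% growth inhibition is given as GI50. Definition used: TGI = concentration required for complete inhibition of growth.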
Key:
Assay in all cases: growth of human tumour cells (NCI), 48 h
[1] = tested on: MDA-MB-231 breast
[2] = tested on: EKVX NSCLC
[3] = tested on: TK-10 renal
[4] = tested on: MDA-MB-435
[5] = tested on: SN12C renal
[6] = tested on: PC-3 prostate
[7] = tested on: OVCAR-5 ovarian
[8] = tested on: SR leukemia
[9] = tested on: SK-MEL-28 melanoma
[10] = tested on: UO-31 renal
[11] = tested on: SF-295 CNS
[12] = tested on: MCF7 breast
[13] = tested on: HOP-62 NSCLC
[14] = tested on: UACC-62 melanoma
[15] = tested on: SNB-75 CNS
[16] = tested on: OVCAR-4 ovarian
[17] = tested on: HS 578T breast
[18] = tested on: NCI/ADR-RES ovarian
[19] = tested on: HT29 colon
[20] = tested on: COLO 205 colon
[21] = tested on: NCI-H226 lung
[22] = tested on: U251 CNS
[23] = tested on: K-562 leukemia
[24] = tested on: KM12 colon
[25] = tested on: A498 renal
[26] = tested on: UACC-257 melanoma
[27] = tested on: MOLT-4 leukemia
[28] = tested on: SK-OV-3 ovarian
[29] = tested on: HCT-15 colon
[30] = tested on: BT-549 breast
[31] = tested on: NCI-H460 lung
[32] = tested on: OVCAR-3 ovarian
[33] = tested on: NCI-H23 lung
[34] = tested on: IGROV1 ovarian
[35] = tested on: ACHN renal
[36] = tested on: HOP-92 NSCLC
[37] = tested on: SNB-19 CNS
[38] = tested on: SW-620 colon
[39] = tested on: SK-MEL-5 melanoma
[40] = tested on: A549 NSCLC
[41] = tested on: SK-MEL-2 melanoma
[42] = tested on: MALME-3M melanoma
[43] = tested on: CAKI-1 renal
[44] = tested on: RPMI-8226 leukemia
[45] = tested on: T-47D breast
[46] = tested on: 786-0 renal
[47] = tested on: HL-60(TB) leukemia
[48] = tested on: HCC-2998 colon
[49] = tested on: RXF 393 renal
[50] = tested on: SF-539 CNS

In the case of `CC(=O)OC[C@]12CC[C@@H](C(=O)/C=C/c3cccnc3)[C@@H]1[C@H]1CC[C@@H]3[C@@]4(C)CC[C@H](OC(C)=O)C(C)(C)[C@@H]4CC[C@@]3(C)[C@]1(C)CC2`, the GI50 [1] is reported as 1500 nM, the TGI [1] is reported as 3610 nM and the GI50 [2] is reported as 2180 nM. The TGI [2] was 6990 nM, the GI50 [3] was 1850 nM and the TGI [3] was 3630 nM. The GI50 [4] was 1410 nM, the TGI [4] was 3180 nM and the GI50 [5] was 1590 nM. For the same compound, the TGI [5] was 4350 nM, the GI50 [6] was 820 nM and the TGI [6] was 4140 nM. For the same compound, the GI50 [7] was 1820 nM, the TGI [7] was 4070 nM and the GI50 [8] was 512 nM. For the same compound, the TGI [8] was > 100000 nM, the GI50 [9] was 1440 nM and the TGI [9] was 2890 nM. The GI50 [10] was 1370 nM, the TGI [10] was 2670 nM and the GI50 [11] was 1470 nM. It also gave a TGI [11] of 3190 nM, a GI50 [12] of 1100 nM and a TGI [12] of 2420 nM. The GI50 [13] was 2210 nM, the TGI [13] was 6370 nM and the GI50 [14] was 1670 nM. The TGI [14] was 4080 nM, the GI50 [15] was 1500 nM and the TGI [15] was 5000 nM. The GI50 [16] was 3010 nM, the TGI [16] was > 100000 nM and the GI50 [17] was 2240 nM. For the same compound, the TGI [17] was 6610 nM, the GI50 [18] was 1990 nM and the TGI [18] was 4910 nM. It also gave a GI50 [19] of 1870 nM, a TGI [19] of 4740 nM and a GI50 [20] of 1480 nM. For the same compound, the TGI [20] was 3370 nM, the GI50 [21] was 1720 nM and the TGI [21] was 3850 nM. For the same compound, the GI50 [22] was 1600 nM, the TGI [22] was 3350 nM and the GI50 [23] was 903 nM. The TGI [23] was > 100000 nM, the GI50 [24] was 1690 nM and the TGI [24] was 4130 nM. The GI50 [25] was 1330 nM, the TGI [25] was 2840 nM and the GI50 [26] was 1900 nM. The TGI [26] was 4680 nM, the GI50 [27] was 587 nM and the TGI [27] was 4000 nM. For the same compound, the GI50 [28] was 3320 nM, the TGI [28] was 19000 nM and the GI50 [29] was 1500 nM. The TGI [29] was 3340 nM, the GI50 [30] was 1460 nM and the TGI [30] was 2870 nM. For the same compound, the GI50 [31] was 1310 nM, the TGI [31] was 3010 nM and the GI50 [32] was 1710 nM. The TGI [32] was 3290 nM, the GI50 [33] was 1860 nM and the TGI [33] was 4120 nM. For the same compound, the GI50 [34] was 1870 nM, the TGI [34] was 4400 nM and the GI50 [35] was 1610 nM. The TGI [35] was 3020 nM, the GI50 [36] was 1080 nM and the TGI [36] was 2470 nM. For the same compound, the GI50 [37] was 1890 nM, the TGI [37] was 4640 nM and the GI50 [38] was 1470 nM. The TGI [38] was 3420 nM, the GI50 [39] was 1550 nM and the TGI [39] was 2970 nM. It also gave a GI50 [40] of 1820 nM, a TGI [40] of 4690 nM and a GI50 [41] of 1800 nM. It also gave a TGI [41] of 3780 nM, a GI50 [42] of 1380 nM and a TGI [42] of 2880 nM. For the same compound, the GI50 [43] was 1260 nM, the TGI [43] was 2700 nM and the GI50 [44] was 839 nM. It also gave a TGI [44] of 3640 nM, a GI50 [45] of 1060 nM and a TGI [45] of 3530 nM. It also gave a GI50 [46] of 2420 nM, a TGI [46] of 6710 nM and a GI50 [47] of 450 nM. It also gave a TGI [47] of 3290 nM, a GI50 [48] of 1650 nM and a TGI [48] of 3230 nM. The GI50 [49] was 1620 nM, the TGI [49] was 3050 nM and the GI50 [50] was 1590 nM. It also gave a TGI [50] of 3070 nM.

Source: PubChem BioAssay (NCI)
